In PMC7226469, “Polyketide-Derived Secondary Metabolites from a Dothideomycetes Fungus, Pseudopalawania siamensis gen. et sp. nov., (Muyocopronales) with Antimicrobial and Cytotoxic Activities” (Biomolecules, 2020):
Converted amounts (≈) assume the structure as drawn. Where a name gives a salt, the structure may show the parent alone. Read-outs that look alike come from different tables or passages of the source.

Tests used:
[1] = system: Bacillus subtilis; experiment: MIC, 96-well serial dilution; type: cell-based; conditions: for MIC: Bacillus subtilis
Procedure: (§1) Gentamicin, kanamycin, nystatin, and oxytetracycline were used as positive controls against tested organisms. […] Epothilone B and methanol were used as positive and negative control, respectively.
(§2) The polyketides 1–5 were evaluated for their antimicrobial activity against selected microorganisms (Table 3) and cytotoxicity against two mammalian cell lines, HeLa cells KB3.1 and mouse fibroblast cell line L929 (Table 4). The starting concentration for antimicrobial assay and cytotoxicity assay were 66.7 and 300 µg/mL, respectively and the substances were dissolved in MeOH (1 mg/mL). […] Results were expressed as MIC or minimum inhibitory concentration (μg/mL) and IC50 or half maximal inhibitory concentration (μM) (Table 3 and Table 4).

[2] = system: Chromobacterium violaceum; experiment: MIC, 96-well serial dilution; type: cell-based; conditions: strain DSM 30191, starting concentration 66.7 µg/mL, control volume in brackets; further: key: (-): no inhibition
Procedure: as §1, §2

[3] = system: Escherichia coli; experiment: MIC, 96-well serial dilution; type: cell-based; conditions: strain DSM 1116, starting concentration 66.7 µg/mL, control volume in brackets; further: key: (-): no inhibition
Procedure: as §1, §2

[4] = system: Micrococcus luteus; experiment: MIC, 96-well serial dilution; type: cell-based; conditions: for MIC: Micrococcus luteus
Procedure: as §1, §2

[5] = system: Mucor hiemalis; experiment: MIC, 96-well serial dilution; type: cell-based; on Minimum Inhibitory Concentration (MIC): key: (-): no inhibition
Procedure: as §1, §2

[6] = system: Pseudomonas aeruginosa; experiment: MIC, 96-well serial dilution; type: cell-based; conditions: strain PA14; starting concentration 66.7 µg/mL; control volume in brackets; further: key: (-): no inhibition
Procedure: as §1, §2

[7] = system: Staphylococcus aureus; experiment: MIC, 96-well serial dilution; type: cell-based; conditions: for MIC: Staphylococcus aureus
Procedure: as §1, §2

[8] = system: HeLa cells KB3.1; experiment: In vitro cytotoxicity, MTT assay; type: cell-based; conditions: Homo sapiens
Procedure: as §1, §2

[9] = system: Mouse fibroblast L929; experiment: In vitro cytotoxicity, MTT assay; type: cell-based
Procedure: as §1, §2

[10] = system: Candida albicans; experiment: MIC, 96-well serial dilution; type: cell-based
Procedure: as §1, §2

[11] = system: Mycobacterium smegmatis; experiment: MIC, 96-well serial dilution; type: cell-based
Procedure: as §1, §2

[12] = system: various fungal and bacterial strains; experiment: Antimicrobial activity against selected microorganisms (summary statements); type: cell-based; conditions: for Antimicrobial activity (in words): fungi and bacteria of Table 3
Procedure: as §1, §2

[13] = system: several cancer cell lines; design: method as in PMID 30258223; conditions: cell proliferation inhibition and apoptosis induction; cited from earlier work
[14] = design: method as in PMID 30258223; conditions: cited from earlier work
[15] = system: M. luteus; design: method as in PMID 30258223; conditions: cited from earlier work
[16] = system: Pseudoalteromonas nigrifaciens; design: method as in PMID 30258223; conditions: cited from earlier work
[17] = system: E. coli; design: method as in PMID 30258223; conditions: cited from earlier work
[18] = system: B. subtilis; design: method as in PMID 30258223; conditions: cited from earlier work
[19] = system: MDA-MB-435 human melanoma cells; design: method as in PMID 23232928; conditions: cited from earlier work
[20] = system: SW620 human colorectal adenocarcinoma cell lines; design: method as in PMID 23232928; conditions: cited from earlier work
[21] = system: CCR5-tropic HIV-1; design: method as in PMID 29258357; conditions: inhibition of infection; cited from earlier work
[22] = system: CXCR4-tropic HIV-1; design: method as in PMID 29258357; conditions: inhibition of infection; cited from earlier work
[23] = system: HeLa cells KB3.1 and mouse fibroblast cell line L929; experiment: Cytotoxicity against two mammalian cell lines (summary statements); conditions: HeLa KB3.1 and L929
Procedure: as §1, §2

[24] = system: Cryptococcus neoformans; experiment: MIC, 96-well serial dilution; type: cell-based; conditions: strain DSM 15466; starting concentration 66.7 µg/mL; control volume in brackets
Procedure: as §1, §2

[25] = system: Pichia anomala; experiment: MIC, 96-well serial dilution; type: cell-based; conditions: strain DSM 6766; starting concentration 66.7 µg/mL; control volume in brackets
Procedure: as §1, §2

[26] = system: Rhodoturula glutinis; experiment: MIC, 96-well serial dilution; type: cell-based; conditions: strain DSM 10134; starting concentration 66.7 µg/mL; control volume in brackets
Procedure: as §1, §2

[27] = system: Schizosaccharomyces pombe; experiment: MIC, 96-well serial dilution; type: cell-based; conditions: strain DSM 70572; starting concentration 66.7 µg/mL; control volume in brackets
Procedure: as §1, §2

[28] = DSM10, strain DSM 10, starting concentration 66.7 µg/mL, control volume in brackets, read-out: Minimum Inhibitory Concentration (MIC)
[29] = DSM1790, strain DSM 1790, starting concentration 66.7 µg/mL, control volume in brackets, read-out: Minimum Inhibitory Concentration (MIC)
[30] = strain DSM 6766, starting concentration 66.7 µg/mL, control volume in brackets
[31] = DSM346, strain DSM 346, starting concentration 66.7 µg/mL, control volume in brackets, read-out: Minimum Inhibitory Concentration (MIC)
[32] = MTT assay, HeLa cells KB3.1, starting concentration 66 μg/mL, read-out: IC50
[33] = MTT assay, mouse fibroblast L929, starting concentration 66 μg/mL, read-out: IC50
[34] = strain DSM 10, starting concentration 66.7 µg/mL, control volume in brackets
[35] = strain DSM 1790, starting concentration 66.7 µg/mL, control volume in brackets
[36] = strain DSM 346, starting concentration 66.7 µg/mL, control volume in brackets

COC(=O)C1(C2OC(=O)CC2C)CC(=O)c2c(O)ccc(-c3ccc4c(c3O)C(=O)C3(O)C5(O)CC(C)C(O)C3(O4)C(=O)O5)c2O1 (stereo not drawn) [Compound 1, pseudopalawanone]
MIC [1, 28]: 66.7 µg/mL (≈ 104 µM)
Minimum Inhibitory Concentration (MIC) [2]: -
Minimum Inhibitory Concentration (MIC) [3]: -
MIC [4, 29]: 66.7 µg/mL (≈ 104 µM)
Minimum Inhibitory Concentration (MIC) [5, 30]: -
Minimum Inhibitory Concentration (MIC) [6]: -
MIC [7, 31]: 66.7 µg/mL (≈ 104 µM)
IC50 [8, 32]: 29.7 µM
IC50 [9, 33]: 50 µM

C[C@H]1CC(O)=C2C(=O)c3c(O)ccc(-c4ccc(O)c5c4O[C@]4(C(=O)O)C(=C(O)C[C@H](C)[C@H]4O)C5=O)c3O[C@@]2(C(=O)O)[C@@H]1O [Compound 2, 4,4′-secalonic acid D]
MIC ([1]; DSM10, read-out: Minimum Inhibitory Concentration (MIC)): 1 µg/mL (≈ 1.64 µM)
MIC ([10]; Candida albicans, DSM1665, read-out: Minimum Inhibitory Concentration (MIC)): 66.7 µg/mL (≈ 109 µM)
Inhibition of Candida albicans (in words) ([10]; comparable to nystatin): showed inhibition
Minimum Inhibitory Concentration (MIC) [2]: -
Minimum Inhibitory Concentration (MIC) [3]: -
MIC ([4]; DSM1790, read-out: Minimum Inhibitory Concentration (MIC)): 8.3 µg/mL (≈ 13.6 µM)
Minimum Inhibitory Concentration (MIC) [5, 30]: -
Activity against Mycobacterium smegmatis (in words) [11]: showed activity
MIC ([11]; Mycolicibacterium smegmatis, ATCC700084, read-out: Minimum Inhibitory Concentration (MIC)): 66.7 µg/mL (≈ 109 µM)
Minimum Inhibitory Concentration (MIC) [6]: -
MIC ([7]; DSM346, read-out: Minimum Inhibitory Concentration (MIC)): 4.2 µg/mL (≈ 6.88 µM)
IC50 [8, 32]: 3.9 µM
IC50 [9, 33]: 14.1 µM
Inhibitory activity against Gram-positive bacteria (in words) ([12]; Bacillus subtilis, Micrococcus luteus, Mycobacterium smegmatis, Staphylococcus aureus): showed inhibitory activity
Antitumor activity (in words) [13]: “potent” antitumor activity
Toxicity (in words) [14]: low toxicity

C[C@H]1CC(O)=C2C(=O)c3c(ccc(-c4ccc(O)c5c4O[C@]4(C(=O)O)C(=C(O)C[C@H](C)[C@@H]4O)C5=O)c3O)O[C@@]2(C(=O)O)[C@H]1O [Compound 3, penicillixanthone A]
MIC [1, 28]: 4.2 µg/mL (≈ 6.88 µM)
Minimum Inhibitory Concentration (MIC) [2]: -
Minimum Inhibitory Concentration (MIC) [3]: -
MIC [4, 29]: 33.3 µg/mL (≈ 54.5 µM)
MIC ([5]; Mucor hiemalis, DSM6766, strain DSM 6766, starting concentration 66.7 µg/mL, control volume in brackets, read-out: Minimum Inhibitory Concentration (MIC)): 66.7 µg/mL (≈ 109 µM)
Inhibition of Mucor hiemalis (in words) ([5]; comparable to nystatin): inhibited
Minimum Inhibitory Concentration (MIC) [6]: -
MIC [7, 31]: 33.3 µg/mL (≈ 54.5 µM)
IC50 [8, 32]: 17.2 µM
IC50 [9, 33]: > 103 µM
Antibacterial activity (in words) [15]: moderate antibacterial activity
Antibacterial activity (in words) [16]: moderate antibacterial activity
Antibacterial activity (in words) [17]: moderate antibacterial activity
Antibacterial activity (in words) [18]: moderate antibacterial activity
Cytotoxic effects (in words) [19]: moderate cytotoxic effects
Cytotoxic effects (in words) [20]: moderate cytotoxic effects
Anti-HIV-1 activity (in words) [21]: inhibiting
Anti-HIV-1 activity (in words) [22]: inhibiting

COC(=O)C1(C2OC(=O)CC2C)CC(=O)c2c(O)cccc2O1 (stereo not drawn) [Compound 4, paecilin B]
Minimum Inhibitory Concentration (MIC) [1, 34]: -
Minimum Inhibitory Concentration (MIC) [2]: -
Minimum Inhibitory Concentration (MIC) [3]: -
Minimum Inhibitory Concentration (MIC) [4, 35]: -
Minimum Inhibitory Concentration (MIC) [5, 30]: -
Minimum Inhibitory Concentration (MIC) [6]: -
Minimum Inhibitory Concentration (MIC) [7, 36]: -
IC50 [8, 32]: > 200 µM
IC50 [9, 33]: > 103 µM
Antimicrobial activity (in words) [12]: neither antimicrobial nor cytotoxic activities
Cytotoxic activity (in words) [23]: neither antimicrobial nor cytotoxic activities

Cc1ccc(C(=O)c2c(O)cccc2C(=O)O)c(O)c1 [Compound 5, cephalanone F]
Minimum Inhibitory Concentration (MIC) [1, 34]: -
Minimum Inhibitory Concentration (MIC) [2]: -
Minimum Inhibitory Concentration (MIC) [3]: -
Minimum Inhibitory Concentration (MIC) [4, 35]: -
Minimum Inhibitory Concentration (MIC) [5, 30]: -
Minimum Inhibitory Concentration (MIC) [6]: -
Minimum Inhibitory Concentration (MIC) [7, 36]: -
IC50 [8, 32]: > 200 µM
IC50 [9, 33]: > 103 µM
Antimicrobial activity (in words) [12]: neither antimicrobial nor cytotoxic activities
Cytotoxic activity (in words) [23]: neither antimicrobial nor cytotoxic activities

C/C(=C\c1csc(C)n1)[C@@H]1C[C@@H]2O[C@]2(C)CCC[C@H](C)[C@H](O)[C@@H](C)C(=O)C(C)(C)[C@@H](O)CC(=O)O1 [Epothilone B, reference compound]
IC50 [8]: 8.9e-05 µM
IC50 ([9]; Mus musculus, L929): 0.0018 µM

NC[C@H]1O[C@H](O[C@H]2[C@H](O)[C@@H](O[C@H]3O[C@H](CO)[C@@H](O)[C@H](N)[C@H]3O)[C@H](N)C[C@@H]2N)[C@H](O)[C@@H](O)[C@@H]1O [K, kanamycin, reference compound]
Minimum Inhibitory Concentration (MIC) ([11]; strain ATCC 700084, starting concentration 66.7 µg/mL, control volume in brackets): 3.3 (2 µL K) μg/mL

C[C@@H]1[C@H](O)[C@@H](C)/C=C/C=C/CC/C=C/C=C/C=C/C=C/C(O[C@H]2O[C@H](C)[C@@H](O)[C@H](N)[C@@H]2O)CC2O[C@](O)(CC(O)C(O)CCC(O)CC(O)CC(O)CC(=O)O[C@H]1C)CC(O)C2C(=O)O (stereo partly drawn) [N, nystatin]
Minimum Inhibitory Concentration (MIC) ([10]; strain DSM 1665, starting concentration 66.7 µg/mL, control volume in brackets): 66.7 (20 µL N) μg/mL
Minimum Inhibitory Concentration (MIC) [24]: 66.7 (20 µL N) μg/mL
Minimum Inhibitory Concentration (MIC) [25]: 66.7 (20 µL N) μg/mL
Minimum Inhibitory Concentration (MIC) [26]: 16.7 (20 µL N) μg/mL
Minimum Inhibitory Concentration (MIC) [27]: 33.3 (20 µL N) μg/mL

CN(C)[C@@H]1C(O)=C(C(N)=O)C(=O)[C@@]2(O)C(O)=C3C(=O)c4c(O)cccc4[C@@](C)(O)[C@H]3[C@H](O)[C@@H]12 [O, oxytetracycline hydrochloride, reference compound]
MIC [1, 28]: 8.3 µg/mL
MIC ([2]; Chromobacterium violaceum, DSM30191, read-out: Minimum Inhibitory Concentration (MIC)): 1.7 µg/mL
MIC ([3]; Escherichia coli, DSM1116, read-out: Minimum Inhibitory Concentration (MIC)): 3.3 µg/mL
MIC [4, 29]: 0.4 µg/mL
MIC [7, 31]: 0.2 µg/mL
